pEC50, pIC50: −log10 of the molar value.
How the values were obtained:
HCT-116 cells [1] = test: Mitotic index analysis, pH3 expression in HCT-116 cells; assay type: cell-based; settings: 24 h treatment
In short: (§1)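 HCT-116 or HT-29 cells treated 24 h with 9-point 3-fold dilutions from 10 μM, then fixed and immunostained for phospho-histone H3 with DRAQ5 counterstain. Near-infrared fluorescence read at 700/800 nm; pH3 expressed as % of DMSO control and EC50 fitted.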

BT-549 cells = test: Detection of cell proliferation activity by CCK8 method (BT-549); assay type: cell-based; settings: CCK8, 96 h
In short: (§2)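 Cells seeded at 1500/well (BT-549, 1640 medium) or 2000/well (HT-29, HCT-116, McCoy's 5A), treated next day with 9-point 1:5 dilutions from 10 μM final, triplicate, for 96 h. CCK8 read at 450 nm after 2 h at 37 °C; inhibition versus DMSO, IC50 by non-linear regression.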

HT-29 cells [2] = test: Detection of cell proliferation activity by CCK8 method (HT-29); assay type: cell-based, human; settings: CCK8, 96 h
In short: as §2

HT-29 cells [3] = test: Mitotic index analysis, pH3 expression in HT-29 cells; assay type: cell-based, human; settings: 24 h treatment
In short: as §1

HCT-116 cells [4] = test: Detection of cell proliferation activity by CCK8 method (HCT-116); assay type: cell-based; settings: CCK8, 96 h
In short: as §2

For O=C(Nc1cc2ccccc2c(N2CCC(F)(F)CC2)n1)c1ccc(NS(=O)(=O)CCO)cc1N1CCC2(CC1)CC2 [Compound 6], the pEC50 (HCT-116 cells [1]; Homo sapiens) was < 5.00, the pIC50 (BT-549 cells; Homo sapiens) was 6.84 and the pIC50 (HT-29 cells [2]; Homo sapiens) was 6.84. For the same compound, the pEC50 (HT-29 cells [3]; Homo sapiens) was 6.76 and the pIC50 (HCT-116 cells [4]; Homo sapiens) was < 5.00.

O=C(Nc1cc2ccsc2c(N2CCC(F)(F)CC2)n1)c1ccc(NS(=O)(=O)CCO)cc1N1CCC2(CC1)CC2 [Compound 15] was tested, and the pEC50 (HCT-116 cells [1]; Homo sapiens) was < 5.00, the pIC50 (BT-549 cells; Homo sapiens) was 7.07 and the pIC50 (HT-29 cells [2]; Homo sapiens) was 6.97. For the same compound, the pEC50 (HT-29 cells [3]; Homo sapiens) was 7.09 and the pIC50 (HCT-116 cells [4]; Homo sapiens) was < 5.00.

In the case of CS(=O)(=O)Nc1ccc(C(=O)Nc2cn3ccnc3c(N3CCC(F)(F)CC3)n2)c(N2CC3CCC(C3)C2)c1 [Compound 19], the pEC50 (HCT-116 cells [1]; Homo sapiens) was < 5.00, the pIC50 (BT-549 cells; Homo sapiens) was 7.16 and the pIC50 (HT-29 cells [2]; Homo sapiens) was 7.36. For the same compound, the pEC50 (HT-29 cells [3]; Homo sapiens) was 7.47 and the pIC50 (HCT-116 cells [4]; Homo sapiens) was < 5.00.

With O=C(Nc1cn2ccnc2c(N2CCC(F)(F)CC2)n1)c1ccc(NS(=O)(=O)CCO)cc1N1CCC2(CC1)CC2 [Compound 8] the pEC50 (HCT-116 cells [1]; Homo sapiens) was < 5.00, the pIC50 (BT-549 cells; Homo sapiens) was 8.14 and the pIC50 (HT-29 cells [2]; Homo sapiens) was 7.72. The pEC50 (HT-29 cells [3]; Homo sapiens) was 8.19 and the pIC50 (HCT-116 cells [4]; Homo sapiens) was < 5.00.

In the case of CS(=O)(=O)Nc1ccc(C(=O)Nc2cn3ccnc3c(N3CCC(F)(F)CC3)n2)c(N2CCC3(CC2)CC3)c1 [Compound 10], the pEC50 (HCT-116 cells [1]; Homo sapiens) was < 5.00, the pIC50 (BT-549 cells; Homo sapiens) was 7.28 and the pIC50 (HT-29 cells [2]; Homo sapiens) was 7.21. For the same compound, the pEC50 (HT-29 cells [3]; Homo sapiens) was 6.74 and the pIC50 (HCT-116 cells [4]; Homo sapiens) was < 5.00.

With O=C(Nc1cn2ccnc2c(N2CCC(F)(F)CC2)n1)c1ccc(NS(=O)(=O)CCO)cc1N1CC2CCC(C2)C1 [Compound 17] the pEC50 (HCT-116 cells [1]; Homo sapiens) was < 5.00, the pIC50 (BT-549 cells; Homo sapiens) was 7.48 and the pIC50 (HT-29 cells [2]; Homo sapiens) was 7.57. The pEC50 (HT-29 cells [3]; Homo sapiens) was 7.24 and the pIC50 (HCT-116 cells [4]; Homo sapiens) was < 5.00.

O=C(Nc1cc2c(c(N3CCC(F)(F)CC3)n1)COC2)c1ccc(NS(=O)(=O)CCO)cc1N1CCC2(CC1)CC2 [Compound 14] was tested, and the pEC50 (HCT-116 cells [1]; Homo sapiens) was < 5.00, the pIC50 (BT-549 cells; Homo sapiens) was 7.60 and the pIC50 (HT-29 cells [2]; Homo sapiens) was 7.52. For the same compound, the pEC50 (HT-29 cells [3]; Homo sapiens) was 7.66 and the pIC50 (HCT-116 cells [4]; Homo sapiens) was < 5.00.

With CS(=O)(=O)Nc1ccc(C(=O)Nc2cc3cc[nH]c3c(N3CCC(F)(F)CC3)n2)c(N2CCC3(CC2)CC3)c1 [Compound 47] the pEC50 (HCT-116 cells [1]; Homo sapiens) was < 5.00, the pIC50 (BT-549 cells; Homo sapiens) was 7.72 and the pIC50 (HT-29 cells [2]; Homo sapiens) was 7.98. The pEC50 (HT-29 cells [3]; Homo sapiens) was 8.19 and the pIC50 (HCT-116 cells [4]; Homo sapiens) was < 5.00.

With O=C(Nc1cn2c(F)cnc2c(N2CCC(F)(F)CC2)n1)c1ccc(NS(=O)(=O)CCO)cc1N1CCC2(CC1)CC2 [Compound 34] the pEC50 (HCT-116 cells [1]; Homo sapiens) was < 5.00, the pIC50 (BT-549 cells; Homo sapiens) was 7.48 and the pIC50 (HT-29 cells [2]; Homo sapiens) was 7.54. The pEC50 (HT-29 cells [3]; Homo sapiens) was 7.84 and the pIC50 (HCT-116 cells [4]; Homo sapiens) was < 5.00.

With O=C(Nc1cn2ncnc2c(N2CCC(F)(F)CC2)n1)c1ccc(NS(=O)(=O)CCO)cc1N1CCC2(CC1)CC2 [Compound 23] the pEC50 (HCT-116 cells [1]; Homo sapiens) was < 5.00, the pIC50 (BT-549 cells; Homo sapiens) was 7.65 and the pIC50 (HT-29 cells [2]; Homo sapiens) was 7.65. For the same compound, the pEC50 (HT-29 cells [3]; Homo sapiens) was 8.01 and the pIC50 (HCT-116 cells [4]; Homo sapiens) was < 5.00.

O=C(Nc1cn2cnnc2c(N2CCC(F)(F)CC2)n1)c1ccc(NS(=O)(=O)CCO)cc1N1CCC2(CC1)CC2 [Compound 24] was tested, and the pEC50 (HCT-116 cells [1]) was < 5.00, the pIC50 (BT-549 cells) was 7.28 and the pIC50 (HT-29 cells [2]) was 6.85. The pEC50 (HT-29 cells [3]) was 7.18 and the pIC50 (HCT-116 cells [4]) was < 5.00.

O=C(Nc1cc2cc[nH]c2c(N2CCC(F)(F)CC2)n1)c1ccc(NS(=O)(=O)CCO)cc1N1CCC2(CC1)CC2 [Compound 22] was tested, and the pEC50 (HCT-116 cells [1]; Homo sapiens) was < 5.00, the pIC50 (BT-549 cells; Homo sapiens) was 7.66 and the pIC50 (HT-29 cells [2]; Homo sapiens) was 7.69. The pEC50 (HT-29 cells [3]; Homo sapiens) was 8.05 and the pIC50 (HCT-116 cells [4]; Homo sapiens) was < 5.00.

For O=C(Nc1cc2cccnc2c(N2CCC(F)(F)CC2)n1)c1ccc(NS(=O)(=O)CCO)cc1N1CCC2(CC1)CC2 [Compound 21], the pEC50 (HCT-116 cells [1]; Homo sapiens) was < 5.00, the pIC50 (BT-549 cells; Homo sapiens) was 8.09 and the pIC50 (HT-29 cells [2]; Homo sapiens) was 8.29. The pEC50 (HT-29 cells [3]; Homo sapiens) was 8.22 and the pIC50 (HCT-116 cells [4]; Homo sapiens) was < 5.00.

With Cc1cc(NC(=O)c2ccc(NS(=O)(=O)CCO)cc2N2CC3CCC(C3)C2)nc(N2CCC(F)(F)CC2)n1 [Compound 3] the pEC50 (HCT-116 cells [1]; Homo sapiens) was < 5.00, the pIC50 (BT-549 cells; Homo sapiens) was 6.84 and the pIC50 (HT-29 cells [2]; Homo sapiens) was 6.94. The pEC50 (HT-29 cells [3]; Homo sapiens) was 6.31 and the pIC50 (HCT-116 cells [4]; Homo sapiens) was < 5.00.
